US6703198B1, “Methods of diagnosing alagille syndrome” (The University of Washington, priority 1997, dated 2004)
“And” between values parts separate entries of the source, which are not always exact repeats. Identical values can stand only once. “Also recorded” adds a separate entry of the source. Where no end group is shown, it is not given here.

Legend:
[1] = test system: full-length Notch1-expressing 32D cells; test: G-CSF-induced granulocytic differentiation of full-length Notch1-expressing 32D myeloid progenitor clones in the presence of hJAGGED1 peptides; type: cell-based, mouse; conditions: 10 μM peptide, 20 ng/ml G-CSF, FIG. 4
Experimental: The ability of the hJAGGED1 HS-27a human stromal cell line to effect differentiation of hematopoietic progenitors was analyzed using the interleukin-3 (IL-3)-dependent myeloid cell line, 32D. The 32D cell line, which was derived from normal mouse bone marrow, is a heterogeneous cell line with individual cells having characteristics of myeloid cells at various early stages of maturation. 32D cells proliferate as undifferentiated blasts in the presence of IL-3, but differentiate into mature granulocytes when stimulated with granulocyte colony stimulating factor (G-CSF; Valtieri et al. Immunol. 138:3829-3835 (1987), which is incorporated herein by reference), thereby providing a system for analyzing factors that may affect myeloid differentiation.
The HS-27a, HS-23 and HS-5 human stromal cell lines were maintained in RPMI containing 10% FCS as described in Roecklein and Torok-Storb, supra, 1995. 32D cells were maintained in Iscove's Modified Dulbecco's Medium (IMDM) with 10% fetal bovine serum (FBS) and 10% WCM as a source of IL-3. For differentiation experiments, 32D cell lines were harvested in log phase, washed, counted, and replated at constant density (2×10^5 cells/ml, 4 ml/well) in 6-well plates in IMDM, 10% FBS, 0.5% WCM and 20 ng/ml recombinant human G-CSF from Amgen (Thousand Oaks, Calif.). Aliquots of […] were removed daily for analysis and replaced with fresh media. Viable cells were counted, and Wright stained cytospins were evaluated for granulocytic differentiation as follows. […] Criteria for granulocytic differentiation included nuclear segmentation, an increased cytoplasmic to nuclear ratio, and increased eosinophilia and granularity of the cytoplasm. […]
Three peptides corresponding to different regions of the hJAGGED1 molecule were analyzed for their effect on differentiation of Notch1-expressing 32D cells treated with G-CSF. […]
Peptide SEQ ID NO:9 (“J-A”) has the sequence […]. […] Differentiation of 32D cells in the presence of hJAGGED peptides was analyzed as described above. […]

[2] = test system: mouse hematopoietic progenitor cells (Sca-1+ lin-); test: Number of G-CFU formed from mouse hematopoietic progenitor cells treated with G-CSF and cell culture supernatant; type: cell-based; conditions: for Number of CFU-G-CSF, Average: average of samples 1-4, control BHK supernatant about 60
Experimental: A soluble fragment of hJAGGED1 (SEQ ID NO:7), which contains the extracellular domain of hJAGGED1 including the signal peptide, DSL region, EGF-like repeats and cysteine-rich region, was prepared by amplifying a portion of the hJAGGED1 cDNA with PCR primers 420 (SEQ ID NO:20; […]) and 421 (SEQ ID NO:21; […]). The hJAGGED1 cDNA fragment, corresponding to residues 1 to 1010, was subcloned into expression vector pDX to generate pDX-hJg1.Ex. After transfection into BHK and COS cells, the cell culture supernatant was assayed for the ability to effect the number of G-CFU formed from mouse hematopoietic progenitor cells ([…] lin^−), which were prepared by removing cells that stained with anti-Gr-1, anti-CD4, anti-CD11b, anti-CD2, anti-CD45R and anti-Ter-119 and then positively selecting Sca-1^+ cells with anti-Sca-1.

CDDYYYGFGCNKFCRPR (cysteine pairing not given here) [peptide SEQ ID NO:9, 17-mer, residues 188 to 204 of hJAGGED1, portion of the DSL domain]
differentiation of full-length Notch1-expressing 32D clones in the presence of G-CSF and peptide [1]: significantly inhibited

CRQGCSPKHGSCKLPGDCRCQYG [peptide SEQ ID NO:10, residues 235 to 257 of hJAGGED1, part of EGF-repeat 1 in the extracellular domain]
differentiation of full-length Notch1-expressing 32D clones in the presence of G-CSF and peptide [1]: comparable to that observed with G-CSF alone; also recorded: unaffected

KRRKPGSHTHSASEDNTTN [peptide SEQ ID NO:11, residues 1096 to 1114 of hJAGGED1, hydrophilic portion of the intracellular domain]
differentiation of full-length Notch1-expressing 32D clones in the presence of G-CSF and peptide [1]: comparable to that observed with G-CSF alone; also recorded: unaffected

hJAGGED1 fragment SEQ ID NO:7: soluble fragment of hJAGGED1, residues 1 to 1010 (extracellular domain), tested as supernatant of transfected BHK cells
Number of CFU-G-CSF, Average ([2]; Sca-1+ lin- cells treated with G-CSF, listed as Supernatant of BHK cells transfected with pDX-hJg1.Ex): 24 | Number of CFU-G-CSF, Average ([2]; Sca-1+ lin- cells treated with G-CSF, listed as supernatant from BHK cells transfected with the hJAGGED1 extracellular domain co): about 24 | granulocytic differentiation of mouse hematopoietic progenitor cells ([2]; conclusion from Table 2): inhibits granulocytic differentiation | Number of CFU-G-CSF ([2]; individual samples, Sca-1+ lin- cells treated with G-CSF, BHK cell supernatant, listed as Supernatant of BHK cells transfected with pDX-hJg1.Ex): 19 and 34 and 20 and 23
